IC50 and Ratio data for 15 compounds are collected here from patent publication US11254686B1 (Corvus Pharmaceuticals, Inc., priority 2017, dated 2022).

Some results are limits rather than exact numbers.

In one experiment the target is adenosine A1 receptor (Homo sapiens (Human), UniProt P30542). Kind of experiment: Adenosine receptor activity assay (Table 1), A1 cAMP. The format is cell-based.
The target in the next experiment is adenosine A3 receptor (Homo sapiens (Human), UniProt P0DMS8). Put plainly: Adenosine receptor activity assay (Table 1), A3 cAMP. The format is cell-based.
Sequence of adenosine A3 receptor (P0DMS8 whole entry): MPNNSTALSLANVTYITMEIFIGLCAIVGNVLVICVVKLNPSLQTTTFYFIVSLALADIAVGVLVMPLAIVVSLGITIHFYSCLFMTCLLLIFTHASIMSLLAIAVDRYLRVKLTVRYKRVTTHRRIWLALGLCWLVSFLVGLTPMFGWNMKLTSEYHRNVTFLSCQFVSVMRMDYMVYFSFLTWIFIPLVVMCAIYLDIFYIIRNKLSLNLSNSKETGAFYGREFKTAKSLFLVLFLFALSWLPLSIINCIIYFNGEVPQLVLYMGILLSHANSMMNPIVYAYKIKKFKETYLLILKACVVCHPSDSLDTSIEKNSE
A further experiment deals with adenosine A2A receptor (Homo sapiens (Human), UniProt P29274). Kind of experiment: Adenosine receptor activity assay (Table 1), A2A activity. The following applies: read-out: Ave A2A cAMP IC50. The format is biochemical.
Sequence of adenosine A2A receptor (P29274 whole entry): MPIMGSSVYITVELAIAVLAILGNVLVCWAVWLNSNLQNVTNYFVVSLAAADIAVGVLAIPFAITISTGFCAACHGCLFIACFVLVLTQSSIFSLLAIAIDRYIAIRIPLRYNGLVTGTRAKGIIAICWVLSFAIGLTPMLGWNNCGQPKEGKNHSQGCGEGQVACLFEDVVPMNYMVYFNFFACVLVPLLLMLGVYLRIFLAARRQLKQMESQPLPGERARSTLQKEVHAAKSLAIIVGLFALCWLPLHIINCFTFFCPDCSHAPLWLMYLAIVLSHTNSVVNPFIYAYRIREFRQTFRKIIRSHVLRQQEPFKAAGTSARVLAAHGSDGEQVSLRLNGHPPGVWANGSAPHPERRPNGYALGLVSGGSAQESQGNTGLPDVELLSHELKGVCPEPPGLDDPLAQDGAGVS
A further experiment concerns the target adenosine A2B receptor (Homo sapiens (Human), UniProt P29275). Kind of experiment: Adenosine receptor activity assay (Table 1), A2B activity. The format is biochemical. The following applies: for Ratio: A2A activity to A2B activity (A2A/A2B); for IC50: read-out: Ave A2B cAMP IC50.

Sequence of adenosine A2B receptor (P29275 whole entry): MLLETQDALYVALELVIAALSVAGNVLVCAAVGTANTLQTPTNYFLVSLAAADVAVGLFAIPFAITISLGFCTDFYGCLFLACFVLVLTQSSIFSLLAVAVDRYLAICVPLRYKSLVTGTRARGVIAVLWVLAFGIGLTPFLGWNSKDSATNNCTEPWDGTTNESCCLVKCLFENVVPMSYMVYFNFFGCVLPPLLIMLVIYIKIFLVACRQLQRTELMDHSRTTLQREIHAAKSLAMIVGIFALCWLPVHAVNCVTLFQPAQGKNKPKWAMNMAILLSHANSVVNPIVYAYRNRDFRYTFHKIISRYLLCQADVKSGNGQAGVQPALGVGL
Sequence of adenosine A1 receptor (P30542 whole entry): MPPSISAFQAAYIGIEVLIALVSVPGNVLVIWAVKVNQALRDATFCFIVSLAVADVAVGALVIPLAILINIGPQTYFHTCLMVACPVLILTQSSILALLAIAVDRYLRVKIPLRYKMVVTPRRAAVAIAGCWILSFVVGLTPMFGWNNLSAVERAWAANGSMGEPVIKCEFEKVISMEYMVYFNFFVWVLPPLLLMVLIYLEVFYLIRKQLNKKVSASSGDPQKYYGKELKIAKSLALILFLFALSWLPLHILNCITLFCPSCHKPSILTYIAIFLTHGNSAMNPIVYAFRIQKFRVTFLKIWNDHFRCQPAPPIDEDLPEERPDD

For the compound `Cc1cc2nc(N[C@@H](C)c3ccccn3)nc(C(=O)N3CCC3)c2s1` [Example Z284, (S)-Azetidin-1-yl(6-methyl-2-((1-(pyridin-2-yl)ethyl)amino)thieno[3,2-d]pyrimidin-4-yl)methanone], the concentration for half-maximal inhibition (IC50) on adenosine A1 receptor is 50 to 100 nM; at adenosine A3 receptor it was 50 to 100 nM; at adenosine A2A receptor it was 50 to 100 nM; at adenosine A2B receptor, less than 10 nM. On adenosine A2B receptor, the Ratio was 56.67.
Turning to `Cc1cc2nc(N[C@@H](C)c3ccccn3)nc(C(=O)N3CC(O)C3)c2s1` [Example Z285, (S)-(3-Hydroxyazetidin-1-yl)(6-methyl-2-((1-(pyridin-2-yl)ethyl)amino)thieno[3,2-d]pyrimidin-4-yl)methanone], the IC50 at adenosine A1 receptor was 50 to 100 nM; against adenosine A3 receptor, 50 to 100 nM; at adenosine A2A receptor it was 100 to 500 nM; on adenosine A2B receptor it was less than 10 nM. Moreover, the Ratio on adenosine A2B receptor turned out to be 51.08.
On to `COC1CN(C(=O)c2nc(N[C@@H](C)c3cccnc3)nc3cc(C)sc23)C1` [Example Z286, (S)-(3-Methoxyazetidin-1-yl)(6-methyl-2-((1-(pyridin-3-yl)ethyl)amino)thieno[3,2-d]pyrimidin-4-yl)methanone], for which the IC50 against adenosine A1 receptor was more than 500 nM; against adenosine A3 receptor, more than 500 nM; at adenosine A2A receptor, 50 to 100 nM; at adenosine A2B receptor, less than 10 nM. Besides, the Ratio at adenosine A2B receptor is 26.11.
Consider `Cc1cc2nc(N[C@@H](C)c3ccccn3)nc(C(=O)NC[C@H](C)O)c2s1` [Example Z287, N—((S)-2-Hydroxypropyl)-6-methyl-2-(((S)-1-(pyridin-2-yl)ethyl)amino)thieno[3,2-d]pyrimidine-4-carboxamide], for which the half-inhibitory concentration (IC50) against adenosine A1 receptor was more than 500 nM; against adenosine A3 receptor, 50 to 100 nM; at adenosine A2A receptor it was 100 to 500 nM; at adenosine A2B receptor, 10 to 50 nM. On adenosine A2B receptor, the Ratio was 23.71.
The matching figures for `Cc1cc2nc(N[C@@H](C)c3ccccn3)nc(C(=O)NC[C@@H](C)O)c2s1` [Example Z288, N—((R)-2-Hydroxypropyl)-6-methyl-2-(((S)-1-(pyridin-2-yl)ethyl)amino)thieno[3,2-d]pyrimidine-4-carboxamide]: more than 500 nM, 50 to 100 nM, 100 to 500 nM, less than 10 nM and 35.51.
Turning to `C[C@H](Nc1nc(C(=O)NCCO)c2sccc2n1)c1cncc(Cl)c1` [Example Z291, (S)-2-((1-(5-Chloropyridin-3-yl)ethyl)amino)-N-(2-hydroxyethyl)thieno[3,2-d]pyrimidine-4-carboxamide], the concentration for half-maximal inhibition (IC50) against adenosine A1 receptor is 50 to 100 nM; against adenosine A3 receptor, more than 500 nM; on adenosine A2A receptor, more than 500 nM; at adenosine A2B receptor, 10 to 50 nM. In addition, on adenosine A2B receptor, the Ratio is 50.12.
`C[C@H](O)CNC(=O)c1nc(N[C@@H](C)c2cncc(Cl)c2)nc2ccsc12` [Example Z292, 2-(((S)-1-(5-Chloropyridin-3-yl)ethyl)amino)-N—((S)-2-hydroxypropyl)thieno[3,2-d]pyrimidine-4-carboxamide]: the IC50 on adenosine A1 receptor was 50 to 100 nM; on adenosine A3 receptor, 50 to 100 nM; on adenosine A2A receptor it was more than 500 nM; on adenosine A2B receptor, 10 to 50 nM. The Ratio at adenosine A2B receptor is 60.59.
`C[C@H](Nc1nc(C(=O)NC[C@@H](C)O)c2sccc2n1)c1cncc(Cl)c1` [Example Z293, 2-(((S)-1-(5-Chloropyridin-3-yl)ethyl)amino)-N—((R)-2-hydroxypropyl)thieno[3,2-d]pyrimidine-4-carboxamide]: the half-maximal inhibitory concentration (IC50) against adenosine A1 receptor was 50 to 100 nM; against adenosine A3 receptor, 50 to 100 nM; at adenosine A2A receptor it was 100 to 500 nM; at adenosine A2B receptor it was less than 10 nM. On adenosine A2B receptor, the Ratio worked out at 41.78.
For `C[C@H](Nc1nc(C(=O)N2CC[C@@H](CO)C2)c2sccc2n1)c1cncc(F)c1` [Example Z295, (2-(((S)-1-(5-Fluoropyridin-3-yl)ethyl)amino)thieno[3,2-d]pyrimidin-4-yl)((R)-3-(hydroxymethyl)pyrrolidin-1-yl)methanone], the concentration for half-maximal inhibition (IC50) at adenosine A1 receptor is more than 500 nM; against adenosine A3 receptor it was more than 500 nM; at adenosine A2A receptor it was 100 to 500 nM; on adenosine A2B receptor, less than 10 nM. Further, the Ratio on adenosine A2B receptor came out at 68.33.
On to `Cc1cc2nc(N[C@@H](C)c3cccnc3)nc(C(=O)N3CC(O)C3)c2s1` [Example Z299, (S)-(3-Hydroxyazetidin-1-yl)(6-methyl-2-((1-(pyridin-3-yl)ethyl)amino)thieno[3,2-d]pyrimidin-4-yl)methanone], for which the IC50 against adenosine A1 receptor is more than 500 nM; on adenosine A3 receptor it was more than 500 nM; on adenosine A2A receptor, 100 to 500 nM; at adenosine A2B receptor, less than 10 nM. The Ratio on adenosine A2B receptor came out at 39.68.
For the compound `COC1CN(C(=O)c2nc(N[C@@H](C)c3ccccn3)nc3cc(C)sc23)C1` [Example Z300, (S)-(3-Methoxyazetidin-1-yl)(6-methyl-2-((1-(pyridin-2-yl)ethyl)amino)thieno[3,2-d]pyrimidin-4-yl)methanone], the half-inhibitory concentration (IC50) at adenosine A1 receptor is 50 to 100 nM; against adenosine A3 receptor it was 50 to 100 nM; at adenosine A2A receptor, 10 to 50 nM; at adenosine A2B receptor it was less than 10 nM. For the same compound, the Ratio on adenosine A2B receptor was found to be 21.89.
`CO[C@@H]1CCN(C(=O)c2nc(N[C@@H](C)c3cncc(F)c3)nc3cc(C)sc23)C1` [Example Z302, (2-(((S)-1-(5-Fluoropyridin-3-yl)ethyl)amino)-6-methylthieno[3,2-d]pyrimidin-4-yl)((R)-3-methoxypyrrolidin-1-yl)methanone]: the half-maximal inhibitory concentration (IC50) at adenosine A1 receptor is more than 500 nM; against adenosine A3 receptor it was 50 to 100 nM; on adenosine A2A receptor it was 50 to 100 nM; on adenosine A2B receptor it was less than 10 nM. For the same compound, the Ratio on adenosine A2B receptor was determined as 35.54.
Turning to `C[C@H](Nc1nc(C(=O)N[C@H]2C[C@@H](O)C2)c2sccc2n1)c1cncc(Cl)c1` [Example Z305, 2-(((S)-1-(5-Chloropyridin-3-yl)ethyl)amino)-N-((1s,3R)-3-hydroxycyclobutyl)thieno[3,2-d]pyrimidine-4-carboxamide], the IC50 was more than 500 nM at adenosine A1 receptor, more than 500 nM against adenosine A3 receptor, 50 to 100 nM on adenosine A2A receptor and less than 10 nM on adenosine A2B receptor. The Ratio on adenosine A2B receptor amounted to 38.51.
Regarding `Cc1cc2nc(N[C@@H](C)c3cncc(F)c3)nc(C(=O)NCC(C)(C)O)c2s1` [Example Z308, (S)-2-((1-(5-Fluoropyridin-3-yl)ethyl)amino)-N-(2-hydroxy-2-methylpropyl)-6-methylthieno[3,2-d]pyrimidine-4-carboxamide], the IC50 against adenosine A1 receptor is 50 to 100 nM; on adenosine A3 receptor, 50 to 100 nM; on adenosine A2A receptor, 50 to 100 nM; on adenosine A2B receptor it was less than 10 nM. Besides, the Ratio at adenosine A2B receptor was 29.96.
On to `Cc1cc2nc(N[C@@H](C)c3cncc(F)c3)nc(C(=O)N3CC[C@H](CO)C3)c2s1` [Example Z309, (2-(((S)-1-(5-Fluoropyridin-3-yl)ethyl)amino)-6-methylthieno[3,2-d]pyrimidin-4-yl)((S)-3-(hydroxymethyl)pyrrolidin-1-yl)methanone], for which the 50% inhibitory concentration (IC50) was more than 500 nM at adenosine A1 receptor, more than 500 nM against adenosine A3 receptor, 50 to 100 nM at adenosine A2A receptor and less than 10 nM at adenosine A2B receptor. For the same compound, the Ratio at adenosine A2B receptor turned out to be 37.14.
